Reference: patent publication US11713338B2, “Cyclic peptides multimers targeting α-4-β-7 integrin” (priority 2016, dated 2023)

Molecular target: T1, integrin α4β7 on α4β7+ memory T helper cells (Homo sapiens, UniProt P13612+P26010)
T1 construct: endogenous in cells
T1 sequence (P13612 34-1032): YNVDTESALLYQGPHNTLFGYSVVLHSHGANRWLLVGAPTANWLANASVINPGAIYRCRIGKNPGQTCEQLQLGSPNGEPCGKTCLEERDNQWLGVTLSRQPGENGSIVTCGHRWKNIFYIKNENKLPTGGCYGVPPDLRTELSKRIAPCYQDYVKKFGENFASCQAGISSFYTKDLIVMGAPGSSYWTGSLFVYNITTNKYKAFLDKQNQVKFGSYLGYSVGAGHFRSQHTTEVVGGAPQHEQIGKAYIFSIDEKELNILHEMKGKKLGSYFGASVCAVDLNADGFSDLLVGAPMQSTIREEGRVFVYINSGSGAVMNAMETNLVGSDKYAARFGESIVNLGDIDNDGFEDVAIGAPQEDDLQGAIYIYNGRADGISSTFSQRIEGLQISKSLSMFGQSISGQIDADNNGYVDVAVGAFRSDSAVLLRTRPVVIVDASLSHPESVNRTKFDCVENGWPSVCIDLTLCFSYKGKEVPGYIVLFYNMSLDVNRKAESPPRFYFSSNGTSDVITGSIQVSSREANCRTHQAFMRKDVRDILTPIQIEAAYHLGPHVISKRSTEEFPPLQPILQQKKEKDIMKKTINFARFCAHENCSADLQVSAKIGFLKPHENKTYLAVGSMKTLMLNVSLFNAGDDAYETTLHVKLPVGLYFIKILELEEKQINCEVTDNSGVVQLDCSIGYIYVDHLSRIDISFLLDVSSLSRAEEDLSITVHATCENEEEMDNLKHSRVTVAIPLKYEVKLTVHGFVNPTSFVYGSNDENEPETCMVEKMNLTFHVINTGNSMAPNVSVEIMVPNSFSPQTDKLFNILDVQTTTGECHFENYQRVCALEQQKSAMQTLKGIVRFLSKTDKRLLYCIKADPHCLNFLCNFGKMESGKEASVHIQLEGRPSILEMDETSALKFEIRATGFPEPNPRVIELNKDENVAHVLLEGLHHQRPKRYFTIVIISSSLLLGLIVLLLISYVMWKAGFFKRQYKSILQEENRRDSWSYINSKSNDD
T1 sequence (P26010 20-798): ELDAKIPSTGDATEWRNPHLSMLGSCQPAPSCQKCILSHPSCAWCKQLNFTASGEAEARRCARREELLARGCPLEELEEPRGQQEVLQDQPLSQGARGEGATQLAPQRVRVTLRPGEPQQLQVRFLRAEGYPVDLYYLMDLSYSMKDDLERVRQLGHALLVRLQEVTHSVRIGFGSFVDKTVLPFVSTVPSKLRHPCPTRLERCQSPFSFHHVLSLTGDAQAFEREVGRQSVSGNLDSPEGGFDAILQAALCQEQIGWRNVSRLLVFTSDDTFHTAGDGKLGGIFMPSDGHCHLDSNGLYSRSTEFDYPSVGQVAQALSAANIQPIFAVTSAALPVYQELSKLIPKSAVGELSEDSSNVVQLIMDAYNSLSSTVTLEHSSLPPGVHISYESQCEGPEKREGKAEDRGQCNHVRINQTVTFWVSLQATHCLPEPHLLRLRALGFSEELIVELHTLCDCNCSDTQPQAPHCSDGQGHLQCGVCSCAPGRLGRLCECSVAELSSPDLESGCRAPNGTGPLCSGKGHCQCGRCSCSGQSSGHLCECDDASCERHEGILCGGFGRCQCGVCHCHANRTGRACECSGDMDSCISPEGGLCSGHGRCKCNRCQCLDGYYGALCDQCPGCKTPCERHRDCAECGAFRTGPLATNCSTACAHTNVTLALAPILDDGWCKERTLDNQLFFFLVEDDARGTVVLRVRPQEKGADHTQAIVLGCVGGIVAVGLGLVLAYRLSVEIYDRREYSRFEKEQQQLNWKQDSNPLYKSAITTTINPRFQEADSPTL
Assay: MAdCAM-1 competition / receptor occupancy assay in human whole blood, α4β7-positive Th memory cells
Format: cell-based
Conditions: human whole blood, FIG. 7; read-out: IC50, MAdCAM-1 competition on α4β7-positive primary cells
Procedure: Analyte Competition Assay in CD4+ Integrin α4+β7-Lo Memory T Cells
Receptor occupancy in primary cells was determined by measuring the amount of biotinylated human recombinant MAdCAM-1-FC or human recombinant VCAM-1-Fc bound to selected cell populations using flow cytometry. Human recombinant MAdCAM-1-FC or human recombinant VCAM-1-FC (R&D systems) were biotinylated using commercially available reagents and protocol (Pierce).
Whole blood was collected from human donors in sodium heparin tubes. […] Cells were washed twice with 1 mL of 1X DPBS calcium magnesium free (CMF) (ThermoFisher Scientific) and resuspended in 100 microL of DPBS CMF.
Biotinylated human recombinant MAdCAM-1-Fc or VCAM-1-Fc were added at saturating concentration and incubated at room temperature for 1 hour. […] Cells were washed with 1 mL stain buffer-FBS (BD Biosciences) and resuspended in 100 μl stain Buffer-FBS (BD Biosciences) containing 4 mM MnCl2. […] Cells were then washed with 1 mL stain buffer-FBS and resuspended in […] stain buffer-FBS. The cells were incubated in the dark for 30 minutes at room temperature with 1 ul Streptavidin APC (Biolegend 0.2 mg/ml) and a panel of antibodies for the detection of memory T helper a4b7-positive cells subset. And amount of 5.0 ul each of the following antibodies were used; CD45 FITC (BioLegend 200 ug/ml), CD29 APC Cy7 (BioLegend 100 ug/ml), Integrin beta7 PE, (BioLegend concentration 50 μg/mL), CD49d V421 (BioLegend 50 μg/mL), CD3 V510 (BioLegend 30 μg/mL), CD4 PECy7 (BioLegend 100 μg/mL), CD45RO PerCP, BioLegend 200 μg/mL). The cells were then washed with stain-buffer-FBS and resuspended in 150 microL stain buffer-FBS for acquisition on the flow cytometer (BD FACSCanto™ flow cytometer and BDFACSDiva™ software). FACS data was acquire by electronic gating on the basis of forward versus side scatter, The cytometer was set to collect 20,000 events in each tube. Cell population were determined using the following markers, CD45+, CD3+, CD4+, CD45RO+, CD49d+, integrin b7, biotinylated ligands.
Compound receptor occupancy was defined as the decrease in the number of integrin β7+ or integrin β7-lo cells binding biotinylated rhMAdCAM-1 or rhVCAM-1, respectively.
Receptor occupancy was calculated with the following equation: 100−((% ligand-positive cells with compound/% ligand-positive cells DMSO)*100) In Vivo T Lymphocyte Trafficking Analysis in Mouse Model of Colitis

Row | SMILES | IC50
1 | CC(C)C[C@@H]1NC(=O)C[C@H](CCCCN)N(C)C(=O)[C@H](CCCCNC(=O)c2ccccc2-c2ccccc2C(=O)NCCCC[C@@H]2NC(=O)[C@@H]3CCCN3[C@H](C(=O)NC(C)(C)C)[C@H](C)NC(=O)[C@H]([C@@H](C)O)NC(=O)[C@H](CC(=O)O)NC(=O)[C@H](CC(C)C)NC(=O)C[C@H](CCCCN)N(C)C2=O)NC(=O)[C@@H]2CCCN2[C@H](C(=O)NC(C)(C)C)[C@H](C)NC(=O)[C@H]([C@@H](C)O)NC(=O)[C@H](CC(=O)O)NC1=O [Compound 535] | 76 nM

Same assay, conditions: human whole blood, inhibition of MAdCAM-1 binding to α4β7-positive Th memory cells, FACS; read-out: MADCAM FACS α4β7 Th mem

Row | SMILES | IC50
2 | CC(C)C[C@@H]1NC(=O)c2ccc(-c3ccc(N4CCN(C(=O)[C@H]5CCC[C@H]5C(=O)N5CCN(c6ccc(-c7ccc8cc7CNC(=O)[C@@H]7CCCN7[C@H](C(=O)NC(C)(C)C)[C@H](C)NC(=O)[C@H]([C@@H](C)O)NC(=O)[C@H](CC(=O)O)NC(=O)[C@H](CC(C)C)NC8=O)cc6)CC5)CC4)cc3)c(c2)CNC(=O)[C@@H]2CCCN2[C@H](C(=O)NC(C)(C)C)[C@H](C)NC(=O)[C@H]([C@@H](C)O)NC(=O)[C@H](CC(=O)O)NC1=O [Compound 458] | 66 nM
3 | CC(C)C[C@@H]1NC(=O)c2ccc(-c3ccc(N4CCN(C(=O)CC[C@H](N)C(=O)N5CCN(c6ccc(-c7ccc8cc7CNC(=O)[C@@H]7CCCN7[C@H](C(=O)NC(C)(C)C)[C@H](C)NC(=O)[C@H]([C@@H](C)O)NC(=O)[C@H](CC(=O)O)NC(=O)[C@H](CC(C)C)NC8=O)cc6)CC5)CC4)cc3)c(c2)CNC(=O)[C@@H]2CCCN2[C@H](C(=O)NC(C)(C)C)[C@H](C)NC(=O)[C@H]([C@@H](C)O)NC(=O)[C@H](CC(=O)O)NC1=O [Compound 494] | 128 nM
4 | CC(C)C[C@@H]1NC(=O)C[C@H](CCCCN)N(C)C(=O)[C@H](CCCCNC(=O)c2ccccc2-c2ccccc2C(=O)NCCCC[C@@H]2NC(=O)[C@@H]3CCCN3[C@H](C(=O)NC(C)(C)C)[C@H](C)NC(=O)[C@H]([C@@H](C)O)NC(=O)[C@H](CC(=O)O)NC(=O)[C@H](CC(C)C)NC(=O)C[C@H](CCCCN)N(C)C2=O)NC(=O)[C@@H]2CCCN2[C@H](C(=O)NC(C)(C)C)[C@H](C)NC(=O)[C@H]([C@@H](C)O)NC(=O)[C@H](CC(=O)O)NC1=O [Compound 535] | 77 nM
5 | CC(C)C[C@@H]1NC(=O)c2ccc(-c3ccc(N4CCN(C(=O)c5ccc(-c6ccc(C(=O)N7CCN(c8ccc(-c9ccc%10cc9CNC(=O)[C@@H]9CCCN9[C@H](C(=O)NC(C)(C)C)[C@H](C)NC(=O)[C@H]([C@@H](C)O)NC(=O)[C@H](CC(=O)O)NC(=O)[C@H](CC(C)C)NC%10=O)cc8)CC7)cc6)cc5)CC4)cc3)c(c2)CNC(=O)[C@@H]2CCCN2[C@H](C(=O)NC(C)(C)C)[C@H](C)NC(=O)[C@H]([C@@H](C)O)NC(=O)[C@H](CC(=O)O)NC1=O [Compound 474] | 74 nM
6 | CC(C)C[C@@H]1NC(=O)c2ccc(-c3ccc(N4CCN(Cc5cccc(CN6CCN(c7ccc(-c8ccc9cc8CNC(=O)[C@@H]8CCCN8[C@H](C(=O)NC(C)(C)C)[C@H](C)NC(=O)[C@H]([C@@H](C)O)NC(=O)[C@H](CC(=O)O)NC(=O)[C@H](CC(C)C)NC9=O)cc7)CC6)c5)CC4)cc3)c(c2)CNC(=O)[C@@H]2CCCN2[C@H](C(=O)NC(C)(C)C)[C@H](C)NC(=O)[C@H]([C@@H](C)O)NC(=O)[C@H](CC(=O)O)NC1=O [Compound 499] | 41 nM
7 | CC(C)C[C@@H]1NC(=O)c2ccc(-c3ccc(N4CCN(C(=O)c5cc(C(=O)N6CCN(c7ccc(-c8ccc9cc8CNC(=O)[C@@H]8CCCN8[C@H](C(=O)NC(C)(C)C)[C@H](C)NC(=O)[C@H]([C@@H](C)O)NC(=O)[C@H](CC(=O)O)NC(=O)[C@H](CC(C)C)NC9=O)cc7)CC6)cc(C(=O)N6CCN(c7ccc(-c8ccc9cc8CNC(=O)[C@@H]8CCCN8[C@H](C(=O)NC(C)(C)C)[C@H](C)NC(=O)[C@H]([C@@H](C)O)NC(=O)[C@H](CC(=O)O)NC(=O)[C@H](CC(C)C)NC9=O)cc7)CC6)c5)CC4)cc3)c(c2)CNC(=O)[C@@H]2CCCN2[C@H](C(=O)NC(C)(C)C)[C@H](C)NC(=O)[C@H]([C@@H](C)O)NC(=O)[C@H](CC(=O)O)NC1=O [Compound 520] | 1.2 nM
8 | CC(C)C[C@@H]1NC(=O)c2ccc(-c3ccc(N4CCN(C(=O)CCOCCOCCOCCOCCOCCOCCOCCOCCOCCOCCC(=O)N5CCN(c6ccc(-c7ccc8cc7CNC(=O)[C@@H]7CCCN7[C@H](C(=O)NC(C)(C)C)[C@H](C)NC(=O)[C@H]([C@@H](C)O)NC(=O)[C@H](CC(=O)O)NC(=O)[C@H](CC(C)C)NC8=O)cc6)CC5)CC4)cc3)c(c2)CNC(=O)[C@@H]2CCCN2[C@H](C(=O)NC(C)(C)C)[C@H](C)NC(=O)[C@H]([C@@H](C)O)NC(=O)[C@H](CC(=O)O)NC1=O [Compound 511] | 182 nM
9 | COc1cc(C(=O)N2CCN(c3ccc(-c4ccc5cc4CNC(=O)[C@@H]4CCCN4[C@H](C(=O)NC(C)(C)C)[C@H](C)NC(=O)[C@H]([C@@H](C)O)NC(=O)[C@H](CC(=O)O)NC(=O)[C@H](CC(C)C)NC5=O)cc3)CC2)cc(-c2ccc(C(=O)N3CCN(c4ccc(-c5ccc6cc5CNC(=O)[C@@H]5CCCN5[C@H](C(=O)NC(C)(C)C)[C@H](C)NC(=O)[C@H]([C@@H](C)O)NC(=O)[C@H](CC(=O)O)NC(=O)[C@H](CC(C)C)NC6=O)cc4)CC3)cc2F)c1 [Compound 464] | 232 nM
10 | CC(C)C[C@@H]1NC(=O)C[C@H](CCCCN)N(C)C(=O)[C@H](CCCCNC(=O)CCCCCCCCC(=O)NCCCC[C@@H]2NC(=O)[C@@H]3CCCN3[C@H](C(=O)NC(C)(C)C)[C@H](C)NC(=O)[C@H]([C@@H](C)O)NC(=O)[C@H](CC(=O)O)NC(=O)[C@H](CC(C)C)NC(=O)C[C@H](CCCCN)N(C)C2=O)NC(=O)[C@@H]2CCCN2[C@H](C(=O)NC(C)(C)C)[C@H](C)NC(=O)[C@H]([C@@H](C)O)NC(=O)[C@H](CC(=O)O)NC1=O [Compound 530] | 33 nM
11 | CC(C)C[C@@H]1NC(=O)c2ccc(-c3ccc(N4CCN(C(=O)C[C@@H](N)C(=O)N5CCN(c6ccc(-c7ccc8cc7CNC(=O)[C@@H]7CCCN7[C@H](C(=O)NC(C)(C)C)[C@H](C)NC(=O)[C@H]([C@@H](C)O)NC(=O)[C@H](CC(=O)O)NC(=O)[C@H](CC(C)C)NC8=O)cc6)CC5)CC4)cc3)c(c2)CNC(=O)[C@@H]2CCCN2[C@H](C(=O)NC(C)(C)C)[C@H](C)NC(=O)[C@H]([C@@H](C)O)NC(=O)[C@H](CC(=O)O)NC1=O [Compound 493] | 94 nM

Same assay, conditions: whole blood from a single donor, FIG. 10; read-out: IC50, inhibition of MAdCAM-1 binding to primary cells

Row | SMILES | IC50
12 | CC(C)C[C@@H]1NC(=O)C[C@H](CCCCN)N(C)C(=O)[C@H](CCCCNC(=O)CCCCCCCCC(=O)NCCCC[C@@H]2NC(=O)[C@@H]3CCCN3[C@H](C(=O)NC(C)(C)C)[C@H](C)NC(=O)[C@H]([C@@H](C)O)NC(=O)[C@H](CC(=O)O)NC(=O)[C@H](CC(C)C)NC(=O)C[C@H](CCCCN)N(C)C2=O)NC(=O)[C@@H]2CCCN2[C@H](C(=O)NC(C)(C)C)[C@H](C)NC(=O)[C@H]([C@@H](C)O)NC(=O)[C@H](CC(=O)O)NC1=O [Compound 530] | 87 to 141 nM
